Results from patent US20080026067A1, “Method for Increasing Specific Surface Area of Slightly Soluble Drug” (priority 2004, published 2008).

Columns and labels:
Format in all cases: physicochemical
[1] = Specific surface area of the powder, multipoint BET method
Experimental: A specific surface area of a powder of the compound A obtained by the above-described methods and the following Examples can be measured by known method, for example, multipoint BET method.
A specific surface area of the compound A was adjusted to give the crystalline powders with different specific surface area by the following method. As well, the measurement of specific surface area was performed by multipoint BET method.

[2] = Measurement of bulk density
Experimental: A bulk density of a powder of the compound A is preferably in the range of about 0.05 to about 0.3 g/cm^3, and more preferably in the range of about 0.05 to about 0.2 g/cm^3. A bulk density can be measured by known method. It includes, for example, the method that about 3 g sample is precisely weighed, it is put into dried 50 mL graduated cylinder (scale: by 0.1 mL) without consolidation, it reads to minimum unit of scale and value that the weight (g) of particulate is divided by the volume (cm^3) of particulate is assumed bulk density (g/cm^3), and method described in the following Examples and so on.
About 3 g of compound A is precisely weighed, it is put into dried 50 mL graduated cylinder (scale: by 0.1 mL) without consolidation, it reads to minimum unit of scale. The value that the weight (g) of particulate is divided by the volume (cm^3) of particulate is assumed bulk density (g/cm^3). As a result, the bulk density of the powder of compound A prepared in Adjustment Example 4(3) was 0.18 g/cm^3 (non-crushing composition) and […] (crushing composition). The bulk density of compound A prepared in Adjustment Example 4(4) was 0.18 g/cm^3 (non-crushing composition) and 0.08 g/cm^3 (crushing composition).

[3] = Measurement of tap density; conditions: tapped 3 minutes at 60 times/minute
Experimental: A tap density of a powder of the compound A is preferably in the range of about 0.1 to about 0.4 g/cm^3, and more preferably in the range of about 0.1 to about 0.3 g/cm^3. A tap density can be measured by known method. It includes, for example, the method that about 3 g sample is precisely weighed, it is put into dried 50 mL graduated cylinder (scale: by 0.1 mL) without consolidation, the graduated cylinder is set on tapping machine for tap density, then it is tapped for 3 minutes at 60 times/minute, final tap density is found, and value that the weight (g) of particulate is divided by final tap density (cm^3) of particulate is assumed tap density (g/cm^3), and method described in the following Examples and so on.
About 3 g of the powder of compound A is precisely weighed, it is put into dried 50 mL graduated cylinder (scale: by 0.1 mL) without consolidation, the graduated cylinder is set on tapping machine for tap density, then it is tapped for 3 minutes at 60 times/minute, final tap density is found. The value that the weight (g) of particulate is divided by final bulk density (cm^3) of particulate is assumed tap density (g/cm^3). As a result, the tap density of the powder of compound A prepared in Adjustment Example 4(3) was 0.28 g/cm^3 (non-crushing composition) and 0.13 g/cm^3 (crushing composition). The tap density of tie powder of compound A prepared in Adjustment Example 4(4) was 0.23 g/cm^3 (non-crushing composition) and 0.16 g/cm^3 (crushing composition).[

[4] = Accelerated test (storage stability: purity by HPLC, degree of moisture by Karl Fisher); conditions: for Degree of moisture (%) / Purity (%): crushing composition
Experimental: 1 g of the powder of compound A was poured into the two-lay plastic bag and closed firmly with banding band. This was poured into miniature fiber dram and then this was preserved in the stability tester under the condition for 6 months, at 40° C., at 75% relative humidity. And then, the purity (quantitative value) and the degree of moisture (%) of the powder of compound A were measured. The measurement of the degree of moisture was performed by known method: the moisture vaporization method/Karl Fisher electrometrical titration method. The measurement of purity was performed by high performance liquid chromatography (HPLC).
About 0.04 mg/mL N,N-dimethylformamide/acetontirile (3/7) solution of reference material and measurement sample of compound A was prepared. In this case, the concentration of the solutions was precisely found. These solutions was set under the below test condition and the purity of measurement sample was calculated from the obtained area value of the peak.
• The detector: ultraviolet absorptiometer (measurement wavelength: 278 nm), • The column: YMC-Pack ODS-A-302 (inside diameter 4.6 mm, length 15 cm), • The mobile phase: acetonitrile/5 mmol/L sodium acetate buffer (It was prepared to pH 4.5 using acetate.)/2-propanol mixture (5/4/1), • The flow: The retention time of the compound A was prepared to be about 12 minutes (about 1.0 mL/min), • The column temperature: the constant temperature in the vicinity of 40° C. • The injection volume: 20 μL.

[5] = 6 months at 40°C, 75% relative humidity
[6] = over 6 months at 40°C, 75% relative humidity

- specific surface area ([1]; crushing composition (jet mill crushed)): 13.4 m^2/g
- specific surface area ([1]; non-crushing composition): 11.2 m^2/g
- bulk density ([2]; crushing composition): 0.08 g/mL
- bulk density ([2]; non-crushing composition): 0.18 g/mL
- tap density ([3]; crushing composition): 0.16 g/mL
- tap density ([3]; non-crushing composition): 0.23 g/mL
- Degree of moisture (%) ([4]; 0 month): 0.1%
- Purity (%) ([4]; 0 month): 98.5%
- long-term storage stability [4, 5]: stable in long-term storage
- Degree of moisture (%) [4, 5]: 0.1%
- Purity (%) [4, 5]: 98.2%
- change (increase) of degree of moisture [4, 6]: no change
- decrease of purity [4, 6]: 0.3%
SMILES: Cc1ccc(-c2nc(CCOc3cccc4c3CCC=C4CCC(=O)O)c(C)o2)cc1 [Adjustment Example 4(4), 3-(5-{2-[5-methyl-2-(4-methylphenyl)-1,3-oxazol-4-yl]ethoxy}-3,4-dihydronaphthalen-1-yl)propanoic acid]
